Here are results for one compound from patent publication US20220106282A1, “TREATMENT FOR BREAST CANCER, INCLUDING TRIPLE-NEGATIVE BREAST CANCER” (priority 2018, published 2022).

Where “and” joins values, the source holds several entries; their conditions need not be identical. Identical values can stand only once.

For data set [1], the system named is human MCF-7 cell culture (breast adenocarcinoma). Description: Proliferation of MCF-7 cells under sulfatase inhibition. It is filed as cell-based. The settings on record: concentration of 20 μg/ml. On the procedure: (§1) The cells were seeded on Carrel vials at 50×10^4 cells per flask. To study the proliferative activity of the cells under conditions of sulfatase inhibition, 24 hours after seeding the culture medium […], and then these tumor cell lines were incubated for various periods of time (24 to 72 hrs). The inhibitor was dissolved in DMSO. […] To exclude the cytotoxic effect of DMSO, a control sample comprising DMSO without sulfatase inhibitor was prepared. To exclude nonspecific detrimental effects of the compounds, normal human skin fibroblasts were used. Then the cells were detached with the versene-trypsin solution (Biolot), plated onto Carrel vials containing a fresh complete culture medium. The cells were counted when untreated control cells reached the maximum cell density per unit of surface area of a culture flask (monolayer), and their number was set as 100%. The proliferative activity of all of the studied cell cultures exposed to sulfatase inhibitors was determined in triplicate.

Data set [2] relates to passaged human tumor of triple-negative breast cancer. In words: Animal models with passaged human triple-negative breast tumor. It counts as in vivo.
Data set [3] in a line: Hormonal effect: uterine body weight in tumor-bearing mice. It counts as in vivo, mouse.
The next data set deals with ovariectomized rats. Description: Biochemical parameters of ovariectomized rats. It counts as in vivo, rat. To be noted: ovariectomised rats.
For data set [4], the system named is normal human skin fibroblasts. Description: Growth of normal human skin fibroblasts (nonspecific effects). It counts as cell-based. The settings on record: concentration of 20 μg/ml; cells having no estrogen receptors. The procedure: as §1, with “24” for “24 hours after seeding the culture medium”
The test system of data set [5] is FVB mice transgenic for HER-2/neu. Description: Acute oral toxicity, OECD 423 test. It is filed as in vivo. On the procedure: 12 female mice were used in the experiment.
The dosage form for administration was prepared ex tempore.
No deaths were detected either.
Further the observations were made once per day.
The medicament was administered in 2 steps with a break of 3 hours in a volume of 0.1 ml per 10 g of a body weight per step at the concentration of 100 mg/ml, because the suspension in oil is thicker at higher concentrations and precludes the medicament to be administered through a gavage. […] Regardless of the group the width of the palpebral fissure of the animals was almost unchanged during the entire observation period. No pathological discharges from the eyes were detected. The nose was pink, moderately moist without pathological discharges. The fur of all mice was neat and shiny without bald spots. A 3% decrease of the animals body weight was registered on Day 2 and a 4% weight decrease on Day 7 from the initial weight (Table 3).

The subject of data set [6] is MDA-MB-231 line of cells of triple-negative breast cancer. Description: Cell growth inhibition, MDA-MB-231. It counts as cell-based. To be noted: Homo sapiens.

What is called LD50 is the dose expected to kill half of the subjects tested. A high value points to a less toxic substance. What is called IC50 is the point on the concentration scale where inhibition reaches its midpoint. A higher IC50 goes with lower potency. On to `C[C@H]1Oc2cc(OS(N)(=O)=O)ccc2[C@H]2CC[C@]3(C)C(=O)CCC[C@H]3[C@H]21` [compound of formula (1), 3-O-sulphamoyloxy-7β-methyl-D-homo-6-oxa-8α-estra-1,3,5(10)-trien-17a-one], for which, in data set [1], the “Proliferation of MCF-7 tumor cells” value is on record as “completely blocks the proliferation”. Moreover, the “Action compared to Tamoxifen and Letrozole” value in data set [2] is “better action”. The Body weight is given as 30.2 ± 1.2 g in data set [3] (20 mg/kg, all mice); 30.3 ± 1.8 g in data set [3] (20 mg/kg, estrous phase D); 30.1 ± 1.7 g in data set [3] (20 mg/kg, estrous phase E); 30.3 ± 0.8 g in data set [3] (100 mg/kg, all mice); 33.1 ± 4.5 g in data set [3] (100 mg/kg, estrous phase D); 29.6 ± 0.5 g in data set [3] (100 mg/kg, estrous phase E). Moreover, in the data set with ovariectomized rats, the Uterotropic activity result is “no uterotropic activity”. In the data set with ovariectomized rats (medicament 5 mg/kg bw), the Uterus weight came to 33 ± 3 mg/100 g bw. In addition, the “Growth of human skin fibroblasts” value in data set [4] is “does not influence the growth”. For the same compound, the “Body weight, individual mice” value in data set [5] (2000 mg/kg i.g. (title of Table 3), Day 1 (before administration), listed as medicament) is 26.0 and 28.4 and 27.7 and 26.2 (2×) and 28.3; in data set [5] (2000 mg/kg i.g., Day 2, listed as medicament, in g (unit assumed)), 25.7 and 27.7 and 27.0 and 25.3 and 27.4 and 24.7; in data set [5] (2000 mg/kg i.g., Day 7, listed as medicament, in g (unit assumed)), 25.0 and 25.8 and 29.6 and 24.6 and 27.6 and 25.7; in data set [5] (2000 mg/kg i.g., Day 14, listed as medicament, in g (unit assumed)), 25.1 and 28.3 and 28.0 and 25.9 and 29.1 and 26.5. The same compound gave a Body weight, average in data set [5] (2000 mg/kg i.g., Day 1 (before administration)) of 27.1 g. Also, in data set [5] (2000 mg/kg, Day 2), the “Decrease of body weight from the initial weight” value is 3%. Besides, in data set [5] (oral (i.g.), OECD 423, listed as anti-cancer agent), the LD50 is listed as over 5000 mg/kg. For the same compound, the “Hazard category according to the OECD 423 test” value is 5th in data set [5] (oral (i.g.), listed as anti-cancer agent); 5th or non-classified and 5th or unclassified in data set [5] (oral (i.g.), listed as medicament). In data set [6], this compound returned an IC50 of 4.8 µM.
